PubChem BioAssay AID2060619 (Molecular Pharmacology Branch, DTP, NCI, 2025)
Values joined by “and” are separate entries in the source; they are usually repeats but may differ in a detail not shown here. Equal entries are not always repeated.

System: 323965-272-R-J2-PDC complex spheroid viability
Experiment: Anticancer human tumor 323965-272-R-J2-PDC patient-derived pancreatic carcinoma cell line growth inhibition [CLK]
Conditions: for viability, T/C: stronger effect = lower value; active means viability on the fitted dose curve at most 10% of control; inactive means the rest
Summary of the method: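 Patient-derived tumor cells grown as complex spheroids with HUVEC endothelial cells and mesenchymal stem cells, treated with drug combinations. Concentrations descend in half-log steps from near clinical Cmax, or from 10 microM if Cmax unknown.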

[1] = curve of first compound, second compound 0.0316 µM
[2] = curve of first compound, second compound 0.1 µM
[3] = curve of first compound, second compound 0.316 µM
[4] = curve of first compound, second compound 1 µM
[5] = curve of first compound, second compound 3.16 µM
[6] = curve of first compound, second compound 10 µM
[7] = second compound 0.0316 µM, first compound 0.0316 µM
[8] = second compound 0.0316 µM, first compound 0.1 µM
[9] = second compound 0.0316 µM, first compound 0.316 µM
[10] = second compound 0.0316 µM, first compound 1 µM
[11] = second compound 0.0316 µM, first compound 3.16 µM
[12] = second compound 0.0316 µM, first compound 10 µM
[13] = second compound 0.1 µM, first compound 0.0316 µM
[14] = second compound 0.1 µM, first compound 0.1 µM
[15] = second compound 0.1 µM, first compound 0.316 µM
[16] = second compound 0.1 µM, first compound 1 µM
[17] = second compound 0.1 µM, first compound 3.16 µM
[18] = second compound 0.1 µM, first compound 10 µM
[19] = second compound 0.316 µM, first compound 0.0316 µM
[20] = second compound 0.316 µM, first compound 0.1 µM
[21] = second compound 0.316 µM, first compound 0.316 µM
[22] = second compound 0.316 µM, first compound 1 µM
[23] = second compound 0.316 µM, first compound 3.16 µM
[24] = second compound 0.316 µM, first compound 10 µM
[25] = second compound 1 µM, first compound 0.0316 µM
[26] = second compound 1 µM, first compound 0.1 µM
[27] = second compound 1 µM, first compound 0.316 µM
[28] = second compound 1 µM, first compound 1 µM
[29] = second compound 1 µM, first compound 3.16 µM
[30] = second compound 1 µM, first compound 10 µM
[31] = second compound 3.16 µM, first compound 0.0316 µM
[32] = second compound 3.16 µM, first compound 0.1 µM
[33] = second compound 3.16 µM, first compound 0.316 µM
[34] = second compound 3.16 µM, first compound 1 µM
[35] = second compound 3.16 µM, first compound 3.16 µM
[36] = second compound 3.16 µM, first compound 10 µM
[37] = second compound 10 µM, first compound 0.0316 µM
[38] = second compound 10 µM, first compound 0.1 µM
[39] = second compound 10 µM, first compound 0.316 µM
[40] = second compound 10 µM, first compound 1 µM
[41] = second compound 10 µM, first compound 3.16 µM
[42] = second compound 10 µM, first compound 10 µM
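Further: spheroids exposed to agents for seven days before readout.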
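Wherever viability, T/C is given: percent of DMSO vehicle control wells so 100% = untreated growth.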

O=c1[nH]cc(F)c(=O)[nH]1
> 10 µM: IC50 (curve of compound)
inactive: viability, T/C (compound 0.0316 µM) 116% and 95.3% | viability, T/C (compound 0.1 µM) 105% and 91.3% | viability, T/C (compound 0.316 µM) 111% and 103% | viability, T/C (compound 1 µM) 96.9% and 96.8% | viability, T/C (compound 3.16 µM) 67.9% and 76.6% | viability, T/C (compound 10 µM) 51.1% and 52.5%

C=CC(=O)N1CCN(c2nc(=O)n(-c3c(C)ccnc3C(C)C)c3nc(-c4c(O)cccc4F)c(F)cc23)C(C)C1 (stereo not given) + CN1CCN(c2cc(C(=O)Nc3cc4cc(-c5cnn(C)c5)ccc4cn3)ccn2)CC1
active: viability, T/C [25] 2.53% | viability, T/C [26] 3.03% | viability, T/C [27] 3.22% | viability, T/C [28] 3.64% | viability, T/C [29] 5.21% | viability, T/C [30] 5.85% | viability, T/C [31] 2.77% | viability, T/C [32] 2.98% | viability, T/C [33] 3.49% | viability, T/C [34] 3.29% | viability, T/C [35] 5.91% | viability, T/C [36] 5.6% | viability, T/C [37] 3.45% | viability, T/C [38] 3.36% | viability, T/C [39] 3.83% | viability, T/C [40] 3.24% | viability, T/C [41] 4.22% | viability, T/C [42] 4.53%
> 10 µM: IC50 [1]
< 0.0316 µM: IC50 [2] | IC50 [3] | IC50 [4] | IC50 [5] | IC50 [6]
inactive: viability, T/C [7] 63% | viability, T/C [8] 64.3% | viability, T/C [9] 55% | viability, T/C [10] 63.9% | viability, T/C [11] 60.1% | viability, T/C [12] 67.9% | viability, T/C [13] 51.3% | viability, T/C [14] 45.8% | viability, T/C [15] 39.8% | viability, T/C [16] 57.4% | viability, T/C [17] 51.5% | viability, T/C [18] 46.6% | viability, T/C [19] 17.9% | viability, T/C [20] 17.9% | viability, T/C [21] 16% | viability, T/C [22] 18.2% | viability, T/C [23] 17.4% | viability, T/C [24] 22.6%

CCN1CCN(Cc2ccc(Nc3ncc(F)c(-c4cc(F)c5nc(C)n(C(C)C)c5c4)n3)nc2)CC1 + CNC(=O)c1ccc(Nc2nc(OC3CCCC3)c3c(-c4ccc5nc(C)oc5c4)c[nH]c3n2)c(OC)c1
inactive: viability, T/C (second compound 0.0316 µM, first compound 0.00316 µM) 90.3% | viability, T/C (second compound 0.0316 µM, first compound 0.01 µM) 103% | viability, T/C [7] 86.9% | viability, T/C [8] 68.4% | viability, T/C [9] 66.2% | viability, T/C [10] 74.3% | viability, T/C (second compound 0.1 µM, first compound 0.00316 µM) 84.9% | viability, T/C (second compound 0.1 µM, first compound 0.01 µM) 73.4% | viability, T/C [13] 60.6% | viability, T/C [14] 63.1% | viability, T/C [15] 55.7% | viability, T/C [16] 67.6% | viability, T/C (second compound 0.316 µM, first compound 0.00316 µM) 64.1% | viability, T/C (second compound 0.316 µM, first compound 0.01 µM) 53.4% | viability, T/C [19] 54.2% | viability, T/C [20] 44.2% | viability, T/C [21] 50.6% | viability, T/C [22] 57.6% | viability, T/C (second compound 1 µM, first compound 0.00316 µM) 48.5% | viability, T/C (second compound 1 µM, first compound 0.01 µM) 40.5% | viability, T/C [25] 45.9% | viability, T/C [26] 49.4% | viability, T/C [27] 40.4% | viability, T/C [28] 61.7% | viability, T/C (second compound 3.16 µM, first compound 0.00316 µM) 42.8% | viability, T/C (second compound 3.16 µM, first compound 0.01 µM) 39.2% | viability, T/C [31] 37.6% | viability, T/C [32] 39.8% | viability, T/C [33] 43.1% | viability, T/C [34] 46.8% | viability, T/C (second compound 10 µM, first compound 0.00316 µM) 42.7% | viability, T/C (second compound 10 µM, first compound 0.01 µM) 46.4% | viability, T/C [37] 41.5% | viability, T/C [38] 38.5% | viability, T/C [39] 46% | viability, T/C [40] 48.5%
< 0.00316 µM: IC50 [4] | IC50 [5] | IC50 [6]
> 1 µM: IC50 [1] | IC50 [2] | IC50 [3]

COc1cccc2c1C(=O)c1c(O)c3c(c(O)c1C2=O)CC(O)(C(=O)CO)CC3OC1CC(N)C(O)C(C)O1 (stereo not given)
active: viability, T/C (compound 10 µM) 2.57% and 0.82%
inactive: viability, T/C (compound 0.0316 µM) 87.4% and 66.2% | viability, T/C (compound 0.1 µM) 40.6% and 41.4% | viability, T/C (compound 0.316 µM) 38.4% and 37% | viability, T/C (compound 1 µM) 44.7% and 30.5% | viability, T/C (compound 3.16 µM) 30.1% and 21.3%
0.24 µM and 0.0976 µM: IC50 (curve of compound)

Nc1ccn(C2OC(CO)C(O)C2(F)F)c(=O)n1 (stereo not given) + CN1CCN(c2cc(C(=O)Nc3cc4cc(-c5cnn(C)c5)ccc4cn3)ccn2)CC1
< 0.0316 µM: IC50 [1] | IC50 [2] | IC50 [3] | IC50 [4] | IC50 [5] | IC50 [6]
active: viability, T/C [25] 2.74% | viability, T/C [26] 3.71% | viability, T/C [27] 5.04% | viability, T/C [28] 3.41% | viability, T/C [29] 3.52% | viability, T/C [30] 1.82% | viability, T/C [31] 3.79% | viability, T/C [32] 4.62% | viability, T/C [33] 5.76% | viability, T/C [34] 4.04% | viability, T/C [35] 4.01% | viability, T/C [36] 6.04% | viability, T/C [37] 3.95% | viability, T/C [38] 5.3% | viability, T/C [39] 4.73% | viability, T/C [40] 4.61% | viability, T/C [41] 5.93% | viability, T/C [42] 4.49%
inactive: viability, T/C [7] 35.2% | viability, T/C [8] 30.6% | viability, T/C [9] 33.9% | viability, T/C [10] 36.6% | viability, T/C [11] 25.3% | viability, T/C [12] 24.8% | viability, T/C [13] 31.1% | viability, T/C [14] 29.9% | viability, T/C [15] 28.6% | viability, T/C [16] 23% | viability, T/C [17] 20.9% | viability, T/C [18] 19.5% | viability, T/C [19] 18.4% | viability, T/C [20] 20.2% | viability, T/C [21] 16.6% | viability, T/C [22] 19.8% | viability, T/C [23] 15.2% | viability, T/C [24] 13.6%
